Patent US9399649B2, “Compounds for treating spinal muscular atrophy” (PTC Therapeutics Inc., priority 2012, dated 2016)

How the values were obtained:
[1] = test system: full length SMN2 minigene mRNA containing SMN2 exon 7; experiment: SMN2 minigene mRNA splicing RT-qPCR assay in cultured cells; format: cell-based, human; conditions: Homo sapiens, HEK293-H; HEK293H cells stably transfected with SMN2-A minigene, 24 hours, 7-point concentration curve; concentration giving 1.5-fold full length SMN2 mRNA vs vehicle; read-out: EC1.5x for production of full length SMN2 mRNA
Protocol: The reverse transcription-quantitative PCR-based (RT-qPCR) assay is used to quantify the level of the full length SMN2 minigene mRNA containing SMN2 exon 7 in a HEK293H cell line stably transfected with said minigene and treated with a test compound.
HEK293H cells stably transfected with the SMN2-A minigene construct described above (10,000 cells/well) are seeded in 200 ut, of cell culture medium (DMEM plus 10% FBS, with 200 μg/mL hygromycin) in 96-well flat-bottom plates and the plate is immediately swirled to ensure proper dispersal of cells, forming an even monolayer of cells. Cells are allowed to attach for at least 4-6 hours. Test compounds are serially diluted 3.16-fold in 100% DMSO to generate a 7-point concentration curve. A solution of test compound (1 μL, 200× in DMSO) is added to each cell-containing well and the plate is incubated for 24 hours in a cell culture incubator (37° C., 5% CO2, 100% relative humidity). 2 replicates are prepared for each test compound concentration. The cells are then lysed in Cells-To-Ct lysis buffer and the lysate is stored at −80° C.
Primer SMN Forward A (SEQ ID NO. 1) hybridizes to a nucleotide sequence in exon 7 (nucleotide 22 to nucleotide 40), primer SMN Reverse A (SEQ ID NO. 2) hybridizes to a nucleotide sequence in the coding sequence of Firefly luciferase, SMN Probe A (SEQ ID NO. 3) hybridizes to a nucleotide sequence in exon 7 (nucleotide 50 to nucleotide 54) and exon 8 (nucleotide 1 to nucleotide 21). The combination of these three oligonucleotides detects only SMN1 or SMN2 minigenes (RT-qPCR) and will not detect endogenous SMN1 or SMN2 genes.
The SMN forward and reverse primers are used at final concentrations of 0.4 μM. The SMN probe is used at a final concentration of 0.15 μM. The GAPDH primers are used at final concentrations of 0.2 μM and the probe at 0.15 μM.
The SMN2-minigene GAPDH mix (15 μL total volume) is prepared by combining 7.5 μL of 2×RT-PCR buffer, 0.4 μL of 25×RT-PCR enzyme mix, 0.75 μL of 20×GAPDH primer-probe mix, 4.0075 μL of water, 2 μL of 10-fold diluted cell lysate, 0.06 μL of 100 μM SMN forward primer, 0.06 μL of 100 μM SMN reverse primer, and 0.225 μL of 100 μM SMN probe.
PCR is carried out at the following temperatures for the indicated time: Step 1: 48° C. (15 min); Step 2: 95° C. (10 min); Step 3: 95° C. (15 sec); Step 4: 60° C. (1 min); then repeat Steps 3 and 4 for a total of 40 cycles.
Each reaction mixture contains both SMN2-A minigene and GAPDH primersprobe sets (multiplex design), allowing simultaneous measurement of the levels of two transcripts.
Two SMN spliced products are generated from the SMN2 minigene. The first spliced product containing exon 7, corresponding to full length SMN2 mRNA, is referred to herein using the term “SMN2 minigene FL.” The second spliced product lacking exon 7 is referred to herein using the term “SMN2 minigene Δ7.”
The increase of SMN2 minigene FL mRNA relative to that in cells treated with vehicle control is determined from real-time PCR data using a modified ΔΔCt method (as described in Livak and Schmittgen, Methods, 2001, 25:402-8). The amplification efficiency (E) is calculated from the slope of the amplification curve for SMN2 minigene FL and GAPDH individually. The abundances of SMN2 minigene FL and GAPDH are then calculated as (1+E)^−Ct, where Ct is the threshold value for each amplicon. The abundance of SMN2 minigene FL is normalized to GAPDH abundance. The normalized SMN2 minigene FL abundance from test compound-treated samples is then divided by normalized SMN2 minigene FL abundance from vehicle-treated cells to determine the level of SMN2 FL mRNA relative to vehicle control.

Smn protein = Smn protein assay in cultured cells (SMN HTRF); format: cell-based, human; conditions: SMA patient fibroblast cells (GM03813), 48 hours; for maximum fold (Fold) increase of Smn protein: 7-point concentration data, relative to vehicle control; for EC1.5x for Smn protein expression: 7-point concentration curve, concentration producing 1.5 times Smn protein vs DMSO vehicle
Protocol: The SMN HTRF (homogeneous time resolved fluorescence) assay is used to quantify the level of Smn protein in SMA patient fibroblast cells treated with test compounds.
Cells are thawed and cultured in DMEM-10% FBS for 72 hours. Cells are trypsinized, counted and re-suspended to a concentration of 25,000 cells/mL in DMEM-10% FBS. The cell suspensions are plated at 5,000 cells per well in a 96 well microtiter plate and incubated for 3 to 5 hours. […] Test compounds are serially diluted 3.16-fold in 100% DMSO to generate a 7-point concentration curve. 1 μL of test compound solution is transferred to cell-containing wells and cells are incubated for 48 hours in a cell culture incubator (37° C., 5% CO2, 100% relative humidity). Triplicate samples are set up for each test compound concentration. After 48 hours, the supernatant is removed from the wells and 25 μL of the RIPA lysis buffer, containing protease inhibitors, is added to the wells and incubated with shaking at room temperature for 1 hour. 25 μL of the diluent is added and then 35 μL of the resulting lysate is transferred to a 384-well plate, where each well contains 5 μL of the antibody solution (1:100 dilution of anti-SMN d2 and anti-SMN kryptate in SMN reconstitution buffer). The plate is centrifuged for 1 minute to bring the solution to the bottom of the wells, then incubated overnight at room temperature. Fluorescence for each well of the plate at 665 nm and 620 nm is measured on an EnVision multilabel plate reader (Perkin-Elmer).
The normalized fluorescence signal is calculated for each sample, Blank and vehicle control well by dividing the signal at 665 nm by the signal at 620 nm. Normalizing the signal accounts for possible fluorescence quenching due to the matrix effect of the lysate. The ΔF value (a measurement of Smn protein abundance as a percent value) for each sample well is calculated by subtracting the normalized average fluorescence for the Blank control wells from the normalized fluorescence for each sample well, then dividing this difference by the normalized average fluorescence for the Blank control wells and multiplying the resulting value by 100. The ΔF value for each sample well represents the Smn protein abundance from test compound-treated samples. The ΔF value for each sample well is divided by the ΔF value for the vehicle control wells to calculate the fold increase in Smn protein abundance relative to the vehicle control.

Row | SMILES | EC (1.5-fold) [1] | maximum fold (Fold) increase of Smn protein (Smn protein) | melting point | EC1.5x for Smn protein expression (Smn protein)
1 | O=c1oc(-c2ccccn2)cc2ccc(N3CCNCC3)cc12 [Cpd 1, 7-(piperazin-1-yl)-3-(pyridin-2-yl)-1H-isochromen-1-one] | 1 to 3 µM | ** (a fold increase between >1.2 and ≦1.35 is indicated by two stars (**)) | 179 to 181 °C | –
2 | O=c1oc(-c2ccsc2)cc2ccc(N3CCNCC3)cc12 [Cpd 2, 7-(piperazin-1-yl)-3-(thiophen-3-yl)-1H-isochromen-1-one] | 0.3 to 1 µM | ** (a fold increase between >1.2 and ≦1.35 is indicated by two stars (**)) | 240 °C (dec.) | –
3 | COc1ccc(-c2cc3ccc(N4CCNCC4)cc3c(=O)o2)cc1OC [Cpd 3, 3-(3,4-dimethoxyphenyl)-7-(piperazin-1-yl)-1H-isochromen-1-one] | ≤ 0.1 µM | **** (a fold increase between >1.5 and ≦1.65 is indicated by four stars (****)) | 142 to 143 °C | *** (an EC1.5× between >0.3 nM and ≦1 nM is indicated by three stars (***))
4 | CN1CCN(c2ccc3cc(-c4ccccn4)oc(=O)c3c2)CC1 [Cpd 4, 7-(4-methylpiperazin-1-yl)-3-(pyridin-2-yl)-1H-isochromen-1-one] | 3 to 30 µM | * (A maximum fold increase of ≦1.2 is indicated by one star (*)) | 174 to 176 °C | –
5 | C[C@@H]1CN(c2ccc3cc(-c4ccccn4)oc(=O)c3c2)C[C@H](C)N1 [Cpd 5, 7-[(3R,5S)-3,5-dimethylpiperazin-1-yl]-3-(pyridin-2-yl)-1H-isochromen-1-one] | 1 to 3 µM | * (A maximum fold increase of ≦1.2 is indicated by one star (*)) | 168 to 170 °C | –
6 | COc1ccc(-c2cc3ccc(N4CCN(C)CC4)cc3c(=O)o2)cc1OC [Cpd 16, 3-(3,4-dimethoxyphenyl)-7-(4-methylpiperazin-1-yl)-1H-isochromen-1-one] | 0.3 to 1 µM | *** (a fold increase between >1.35 and ≦1.5 is indicated by three stars (***)) | – | –
7 | Cc1cn2cc(-c3cc4ccc(N5CCNCC5)cc4c(=O)o3)nc2c(C)n1 [Cpd 62, 3-(6,8-dimethylimidazo[1,2-a]pyrazin-2-yl)-7-(piperazin-1-yl)-1H-isochromen-1-one] | ≤ 0.1 µM | ***** (a fold increase >1.65 is indicated by five stars (*****)) | – | **** (an EC1.5×≦0.3 nM is indicated by four stars (****))
8 | Cc1cn2cc(-c3cc4ccc(N5CCN6CCC[C@@H]6C5)cc4c(=O)o3)nc2c(C)n1 [Cpd 70, 3-(6,8-dimethylimidazo[1,2-a]pyrazin-2-yl)-7-[(8aR)-hexahydropyrrolo[1,2-a]pyrazin-2(1H)-yl]-1H-isochromen-1-one] | 0.1 to 0.3 µM | **** (a fold increase between >1.5 and ≦1.65 is indicated by four stars (****)) | – | *** (an EC1.5× between >0.3 nM and ≦1 nM is indicated by three stars (***))
9 | Cc1cn2cc(-c3cc4ccc(C5CCN(C6CCC6)CC5)cc4c(=O)o3)nc2c(C)n1 [Cpd 118, 7-(1-cyclobutylpiperidin-4-yl)-3-(6,8-dimethylimidazo[1,2-a]pyrazin-2-yl)-1H-isochromen-1-one] | ≤ 0.1 µM | **** (a fold increase between >1.5 and ≦1.65 is indicated by four stars (****)) | – | **** (an EC1.5×≦0.3 nM is indicated by four stars (****))
10 | Cc1cn2cc(-c3cc4ccc(N5C[C@@H](C)N(C6CCC6)[C@@H](C)C5)cc4c(=O)o3)nc2cn1 [Cpd 132, 7-[(3R,5S)-4-cyclobutyl-3,5-dimethylpiperazin-1-yl]-3-(6-methylimidazo[1,2-a]pyrazin-2-yl)-1H-isochromen-1-one] | ≤ 0.1 µM | ***** (a fold increase >1.65 is indicated by five stars (*****)) | – | **** (an EC1.5×≦0.3 nM is indicated by four stars (****))
11 | Cc1cn2cc(-c3cc4ccc(N5CCN(CCO)[C@H](C)C5)cc4c(=O)o3)nc2cn1 [Cpd 133, 7-[(3R)-4-(2-hydroxyethyl)-3-methylpiperazin-1-yl]-3-(6-methylimidazo[1,2-a]pyrazin-2-yl)-1H-isochromen-1-one] | ≤ 0.1 µM | ***** (a fold increase >1.65 is indicated by five stars (*****)) | – | **** (an EC1.5×≦0.3 nM is indicated by four stars (****))
12 | Cc1cn2cc(-c3cc4ccc(N5CCN(CCO)[C@@H](C)C5)cc4c(=O)o3)nc2c(C)n1 [Cpd 134, 3-(6,8-dimethylimidazo[1,2-a]pyrazin-2-yl)-7-[(3S)-4-(2-hydroxyethyl)-3-methylpiperazin-1-yl]-1H-isochromen-1-one] | ≤ 0.1 µM | ***** (a fold increase >1.65 is indicated by five stars (*****)) | – | **** (an EC1.5×≦0.3 nM is indicated by four stars (****))
13 | CCc1nc(C)cn2cc(-c3cc4ccc(N5CCNCC5)cc4c(=O)o3)nc12 [Cpd 150, 3-(8-ethyl-6-methylimidazo[1,2-a]pyrazin-2-yl)-7-(piperazin-1-yl)-1H-isochromen-1-one] | ≤ 0.1 µM | ***** (a fold increase >1.65 is indicated by five stars (*****)) | – | **** (an EC1.5×≦0.3 nM is indicated by four stars (****))
